Results: PMC12381781, “Structural and functional insights into the selective inhibition of mutant tau aggregation by purpurin and oleocanthal in frontotemporal dementia” (Protein Science : A Publication of the Protein Society, 2025)
“Also recorded” adds a separate entry of the source.

How the values were obtained:
[1] = target: T1, preformed R2R3 (WT) fibrils (Homo sapiens, UniProt P10636); assay: Elongation of preformed R2R3 (WT) fibrils, ThT; assay type: biochemical; details: R2R3 WT pre-aggregated 24 h, compound 10 μM; for ThT-stained aggregates from post-treatment samples, confocal imaging: further 24 h
T1 construct: Peptides spanning R2R3—including PHF6 and PHF6*; purchased ProteoGenix (Schiltigheim, France); host or cells: chemical synthesis (custom peptide)
T1 sequence (P10636 592-653 limits assumed): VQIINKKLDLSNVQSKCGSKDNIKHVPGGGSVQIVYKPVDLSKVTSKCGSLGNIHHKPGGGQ
Procedure: Peptides were pre‐aggregated for 24 h with aggregation kinetics monitored by ThT fluorescence, after which 10 μM PUR or OLC was added, followed by an additional 24–30 h of incubation (Figure 4a). Aggregation kinetics was monitored by ThT fluorescence, and elongation was quantified as the AUC following compound addition, normalized to each replicate's maximum pre‐treatment fluorescence (Figure 4b). […] WT peptide fibril elongation was reduced to 15.5 ± 2.8% (PUR) and 45.2 ± 3.2% (OLC), and P301L peptide fibril elongation was limited to 31.8 ± 0.6% (PUR) and 85.6 ± 2.2% (OLC) (Figure 4b). Fluorescence microscopy imaging further confirmed the presence of reduced ThT‐positive aggregates following the addition of PUR and OLC (Figure S12). Similar inhibition trends, with PUR outperforming OLC, were also observed for V287I and N279K peptides (Figure S12).
FIGURE 4 Purpurin (PUR) and oleocanthal (OLC) inhibit elongation of preformed wild‐type (WT) and P301L tau fibrils. (a) The thioflavin T (ThT) fluorescence kinetics of pre‐aggregated R2R3 (WT and P301L) tau peptides treated with PUR or OLC (10 μM). Peptides were first allowed to aggregate for 24 h, followed by compound addition and continued incubation for an additional 24–30 h. Vertical dashed lines indicate the time point of compound addition. Curves are normalized to each replicate's maximum pre‐treatment ThT fluorescence. Source data are provided in the Data Availability Statement section. Mean ± SEM (n ≥ 3). (b) Aggregation levels post‐treatment, expressed as a percentage of control (untreated fibrils), calculated from the area under the curve after compound addition. Mean ± SEM (n ≥ 3). ***p < 0.001, **p < 0.01, one‐way ANOVA (Tukey's post hoc test).
Figure S12. Confocal imaging of ThT-stained aggregates from post-treatment samples in Figure 4. R2R3 (WT and P301L) tau peptides were incubated for 24 h to allow initial aggregation, followed by the addition of PUR or OLC (10 µM). After a further 24 h, reaction mixtures from compound-treated wells were collected, embedded in 0.05% low-melting agarose, and processed for imaging as described in Figure S11. […] Scale bar: 50 μm.

[2] = tested on: Tau RD P301S FRET Biosensor cells; assay: Biosensor cell seeding assay, post-transduction treatment; assay type: cell-based; details: for concentrations at which seeding was significantly reduced, post-transduction treatment: P301L fibrils transduced 24 h, then compound for 24 h; for seeding (CFP/YFP inclusions) after post-transduction treatment: WT fibrils transduced 24 h, then compound 0 to 10 μM for 24 h
Procedure: To further evaluate whether PUR and OLC can suppress pathological tau propagation, we performed post‐transduction treatment assays in Tau RD P301S FRET Biosensor cells. WT or P301L tau fibrils were first transduced into cells for 24 h, followed by treatment with PUR or OLC for an additional 24 h. Prior MTS assays confirmed that these concentrations were non‐toxic to biosensor cells (Figure S16).
Tau peptides were aggregated with or without PUR or OLC in a 7.4 pH aggregation buffer without ThT. After 48 h, the contents of each well were pooled to a final total volume of 120 μL. The concentration of the pooled Aggregation Reaction Products was measured using the Pierce™ BCA Protein Assay Kit (Thermo Fisher Scientific Inc., Cat. # 23225). The reaction products were standardized for cell transduction to a final concentration of 100 nM for both control and drug‐treated samples. The pooled aggregation mixture was sonicated using a Branson Ultrasonic™ Sonifier Cup Horns (Marshall Scientific, Hampton, NH, USA) at 30% amplitude (15 s ON and 15 s OFF for 1 min) to fragment larger aggregates into smaller ones, facilitating consistent transduction.
Tau RD P301S FRET Biosensor cells were plated at 5 × 10^3 cells per well in PhenoPlate 384‐well, black, optically clear flat‐bottom plates (Revvity; Part # 6057302) pre‐coated with 50 μg/mL Poly‐ᴅ‐Lysine (Sigma‐Aldrich, Cat. # P6407). After plating, cells were incubated for 30 min at room temperature to promote better cell spreading before returning the plates to the incubator.
The next day, cells were transduced with 100 nM of aggregation mixture, which were either: (i) prepared in the absence (control) or presence of 10 μM PUR or OLC for co‐aggregation studies (Figure 5), or (ii) prepared exclusively in the absence of compounds for post‐transduction treatment studies (Figure 6). The aggregation mixtures were premixed with 0.2 μL per well TurboFect™ Transfection Reagent (Thermo Fisher Scientific Inc., Cat. # R0533) in 10 μL Opti‐MEM™ (Thermo Fisher Scientific Inc., Cat. #11058021) and added to cells.
For co‐aggregation studies (Figure 5), cells were cultured for 48 h after transduction before processing for imaging. […]
Cells were imaged on a Cell Voyager 7000S high‐content imaging system (Yokogawa, Tokyo, Japan) with a 20× objective. CFP/YFP inclusions of seeded tau were detected using a 488 nm laser line (Ex = 460–490 nm, Em = 500–550 nm), and Hoechst‐stained nuclei were detected using a 405 nm laser line (Ex = 360–400 nm, Em = 410–480 nm). […] Image analysis was performed using Signals Image Artist (Revvity) to quantify the number of cells (Hoechst‐stained nuclei) and intracellular CFP/YFP inclusions. […]

[3] = tested on: Tau Biosensor cells; assay: MTS cytotoxicity assay, Tau Biosensor cells; assay type: cell-based; details: 0-100 µM, 72 h
Procedure: Figure S16. Cytotoxic activity of PUR and OLC. Tau Biosensor and CCRF-CEM (human leukemic lymphoblast) cells were treated with increasing concentrations (0-100 µM) of PUR and OLC for 72 h. Cell viability was then assessed using the MTS assay. CCRF-CEM (human leukemic lymphoblasts) cells, known for their high sensitivity to cytotoxic agents ^1, were used as positive controls. […] Calculated IC50 values are indicated in the graphs. Mean ± SEM (n = 3).

| SMILES | remaining activity at 10 µM ([1]; further 24–30 h, read-out: fibril elongation, aggregation post-treatment as percentage of control (AUC after compound addition)) [%] | ThT-stained aggregates from post-treatment samples, confocal imaging [1] | concentrations at which seeding was significantly reduced, post-transduction treatment [2] [µM] | seeding (CFP/YFP inclusions) after post-transduction treatment [2] | cytotoxicity, cell viability (MTS) [3] | fibril elongation, aggregation post-treatment as percentage of control (AUC after compound addition) ([1]; further 24–30 h) [%] |
| --- | --- | --- | --- | --- | --- | --- |
| O=C1c2ccccc2C(=O)c2c(O)c(O)cc(O)c21 [PUR, purpurin] | 15.5 ± 2.8 | either a complete absence or a marked reduction in ThT signal | ≥ 1.25 | significantly reduced seeding at all tested concentrations | neither PUR nor OLC was cytotoxic; also recorded: non‐toxic |  |
| C/C=C(/C=O)[C@@H](CC=O)CC(=O)OCCc1ccc(O)cc1 [OLC, oleocanthal] |  | either a complete absence or a marked reduction in ThT signal | ≥ 1.25 | significantly reduced seeding at all tested concentrations | neither PUR nor OLC was cytotoxic; also recorded: non‐toxic | 45.2 ± 3.2 |
